From US12220411B1, “Application of PTGDS inhibitor in preparation of drug for treating cataracts” (THE EYE HOSPITAL OR WENZHOU MEDICAL UNIVERSITY, priority 2023, dated 2025)

Columns and labels:
lens epithelial cells [1] = test: MDA content measurement (oxidative stress injury); type: cell-based, human
Procedure: MDA is an important index of oxidative stress, and measurement on the content of the MDA reflects a degree of an oxidative stress injury. After addition of different concentrations of PTGDS (FIG. 10A) and PGD2 (FIG. 10B), values of MDA were measured.

HLEC-B3 cell line = test: CCK8 cell activity with AT-56 added; type: cell-based, human
Procedure: AT-56 was added to the cell line.

lens epithelial cells [2] = test: ROS fluorescence staining in H2O2 epithelial cell oxidation model; type: cell-based, human; conditions: 200 μM H2O2 and 10 µM AT-56 (FIG. 9)
rat lens = test: In vitro oxidative opacity model for a rat lens (lens organ culture)
lens epithelial cells [3] = test: Apoptosis of lens epithelial cells cultured with H2O2; type: cell-based, human; conditions: 10 μM AT-56 added to 200 μM H2O2 (FIG. 11)
Source text: If the lens epithelial cells suffer from the oxidative stress injury, excessive ROS may accumulate in the cells, which can cause apoptosis until generation of cataracts.

lens epithelial cells [4] = test: ROS fluorescence staining after addition of PTGDS or PGD2; type: cell-based, human

Molecule: C1=Cc2ccccc2C(=C2CCN(CCCCc3nn[nH]n3)CC2)c2ccccc21 [AT-56, 4-dibenzo[a,d]cyclohepten-5-ylidene-1-[4-(2H-tetrazol-5-yl)-butyl]-piperidine]
- production of the MDA (lens epithelial cells [1]; AT-56 added to 200 μM H2O2 (FIG. 10C)): effectively reduce production of the MDA
- cell activity (CCK8) (HLEC-B3 cell line; 7 μM AT-56, versus DMSO): higher than that with the addition of DMSO
- cell activity (CCK8) (HLEC-B3 cell line; 10 μM AT-56, versus DMSO): higher than that with the addition of DMSO
- ROS production in H2O2 epithelial cell oxidation model (lens epithelial cells [2]): inhibit lens epithelial cells from producing ROS
- progression of the cataracts (lens opacity) (rat lens; 200 μM H2O2 + 7 or 10 μM AT-56 for 12 h (FIGS. 12A-D)): alleviated progression of the cataracts
- degree of the cataracts (lens opacity) (rat lens; 200 μM H2O2 for 12 h, then 7 or 10 μM AT-56 for 24 h (FIGS. 12E-G)): effectively reduce the degree of the cataracts
- apoptosis of lens epithelial cells (lens epithelial cells [3]): effectively reduce apoptosis

Molecule: CCCCC[C@H](O)/C=C/[C@H]1C(=O)C[C@H](O)[C@@H]1C/C=C\CCCC(=O)O [PGD2, prostaglandin D2]
- content of MDA (lens epithelial cells [1]; different concentrations of PGD2 (FIG. 10B)): increased with the increase of the concentration
- levels of ROS produced by the lens epithelial cells (lens epithelial cells [4]; PGD2 0.1, 0.4, 0.7, 1.0 nM versus DMSO (FIG. 8)): increased, and were concentration-dependent

B1: PTGDS: prostaglandin H2 (PGH2) D-isomerase protein added to lens epithelial cells at 100-1000 pg/mL (protein, UniProt P41222 23-190, looked up)
Prostaglandin-H2 D-isomerase: APEAQVSVQPNFQQDKFLGRWFSAGLASNSSWLREKKAALSMCKSVVAPATDGGLNLTSTFLRKNQCETRTMLLQPAGSLGSYSYRSPHWGSTYSVSVVETDYDQYALLYSQGSKGPGEDFRMATLYSRTQTPRAELKEKFTAFCKAQGFTEDTIVFLPQTDKCMTEQ
- content of MDA (lens epithelial cells [1]; different concentrations of PTGDS (FIG. 10A)): increased with the increase of the concentration
- levels of ROS produced by the lens epithelial cells (lens epithelial cells [4]; PTGDS 100, 400, 700, 1000 pg/mL versus DMSO control (FIG. 7)): increased, and were concentration-dependent
